Experimental data published in US11590453B2, “Membrane disinfectant” (Diversey, Inc., priority 2017, dated 2023).

Assay: pH of test solutions
Type: physicochemical

Measured: pH

O=[N+]([O-])O [Nitric Acid Solution, Nitric Acid]
2.00: solution of membrane compatibility test, Table 6 | solution of membrane compatibility test, Table 8 | solution of salt retention test, Table 7
